Reference: patent publication US20080139463A1, “Use Of [D-Meala]3-[Etval]4-Cyclosporin For The Treatment Of Hepatitis C Infection And Pharmaceutical Composition Comprising Said [D-Meala]3-[Etval]4-Cyclosporin” (priority 2005, published 2008)
Converted amounts (≈) assume the structure as drawn.

How the values were obtained:
[1] = system: Jc1-Luc virus (full-length chimeric genome between HCV strains J6 and JFH1); assay: Antiviral luciferase assay in hepatoma cells infected with recombinant HCV; format: cell-based; conditions: infected Huh-7-Lunet and Huh-7.5 cells, 72 hours, FIGS. 1 and 2
From the text: The method used hepatoma cells that had been infected with an infectious full length chimeric HCV construct or the same virus that was modified to carry a luciferase receptor gene.
Infectious HCV viruses of full-length chimeric genome between HCV strains J6 and JFH1 (Jc1) were used to inoculate the hepatoma cells of the assays. The construct of Jc1 virus was also modified to obtain a bicistronic genome carrying a luciferase reporter gene (Jc1-Luc).
Assays used either Huh-7-Lunet or Huh-7.5 cells (Lohmann et al., Science 285(5424), (1999), 110-113). Cells were grown in Dulbecco's modified Eagle's Medium (DMEM; Gibco) supplemented with 10% heat-inactivated fetal bovine serum (FCS) (Integro), 1× non-essential amino acids (Gibco), 100 IU/ml penicillin (Gibco), 100 μg/ml streptomycin (Gibco) or 25 μg/ml hygromycin (Gibco) for Huh-mono cells at 37° C. and 5% CO2. For antiviral (replication) assays, Huh-7-Lunet and Huh-7.5 cells were seeded at a density of 2×104 or 4×10^4 cells per well of a 12-well plate. […]
The inhibition of viral replication were estimated by luciferase assay. […] Firefly luciferase activity was measured according to Krieger et al. (J Virol, 75(10), (2001), 4614-4624). […] Finally, luminescence was measured by using a Lumat LB9507 luminometer (Berthold) for 20 samples.

[2] = system: HCV replicon in Huh-9-13 cells; assay: HCV replicon clearance and rebound in Huh-9-13 cells; format: cell-based; conditions: 0.5 or 1 μg/ml for 7 consecutive passages, then G418 1000 μg/ml for 2 passages; FIG. 3
Description: Assays used Huh-9-13 cells, human hepatoma cells (Huh-7) (Lohmann et al., Science 285(5424), (1999), 110-113) Cells were grown in the usual complete medium DMEM without G418 pressure.
RT-PCR were performed on extracts of viral RNA of samples taken at different passage points. The forward and reverse primers used were 5′-[sequence]-3′ and 5′-[sequence]-3′, respectively. The fluorogenic probe was 5′-[sequence]-3′. As an internal control, a plasmid containing part of the neomycin phosphotransferase gene sequence was used. Results were analysed and expressed as a quantity of replicon RNA (ng) per 1'000 cells and used to draft a graph.

[3] = MTT assay of cytostatic/cytotoxic effect in Huh 5-2 cells; conditions: human
From the text: Cell density and cytostatic effects were estimated in parallel cultures in regular 96-well plates (Beckton-Dickinson) using the MTT assay (CellTiter 96® AQueous Non-Radioactive Cell Proliferation Assay, Promega). In this assay, 3-(4,5-dimethylthiazol-2-yl)-5-(3-carboxymethoxy-phenyl)-2-(4-sulfophenyl)-2H-tetrazolium (MTS) is bioreduced to a formazan that is quantitated at 498 nm in a plate reader. Formazan production is directly correlated with number of life cells.
(§1) Results from these experiments permitted calculation of EC50 for the different cyclosporins, which is the effective concentration required to inhibit HCV replicon replication by 50%, and of CC50, which is the concentration required that inhibits the proliferation of exponentially growing cells by 50%, and a selectivity index SI, which is the ratio between CC50 and EC50.

[4] = system: CD4^+ PBMCs; assay: Mixed lymphocyte reaction, [3H]-thymidine incorporation; format: cell-based; conditions: for immunosuppressive activity (interpretation of Table 2): mixed lymphocyte reaction; for % Stimulation (relative): cyclosporin 1 μg/ml, five days
Description: In this assay, cyclosporins were dissolved in ethanol (10 mg/ml). Freshly isolated CD4^+ PBMCs from two healthy donors were mixed subsequent to inactivation by irradiation of one of the populations (stimulator cells; S). […] R) was determined by [^3H]-thymidine incorporation. The assay was conducted reciprocally with the two cell populations, each being inactivated and stimulated in turn. Stimulation (%) of responder cells was calculated by the formula: […] Sample refers to a mixture of stimulator and responder cells. Background represents a control in which only stimulator cells are mixed.

[5] = Initial phase I clinical studies, safety of oral doses; format: in vivo; conditions: oral doses of 50 to 1600 mg; not dose-related
Description: Initial phase I clinical studies were carried out to assess the safety of oral doses of [D-MeAla]^3-[EtVal]^4-CsA, and to determine the pharmacokinetic profile and safety profile of the drug substance. […] These side effects were not dose-related.

[6] = target: T1, human recombinant cyclophilin A (Homo sapiens, UniProt P62937); assay: PPlase activity of cyclophilin A, tight binding inhibitor fit (Garcia-Echverria et al.); format: biochemical; conditions: for Et (total enzyme concentration): fit parameter of tight binding equation
T1 construct: purchased Sigma
Description: Commercial human recombinant cyclophilin A (Sigma) was used in the assays. PPlase activity of cyclophilins was determined using a chymotrypsin-coupled spectrophotometric assay according to Garcia-Echverria et al. (BBRC, 191, (1993), 70-75). This method is based on the high trans selectivity of chymotrypsin for peptides of the type N-succinyl-ala-ala-pro-phe-p-nitroanilide. The peptides cleavage liberated the para-nitroaniline moiety that could be detected and quantitated at 390 nm. The hydrolysis of the cis form was limited by the rate of cis-trans isomerisation carried out by cyclophilin A. The peptide was made up in a solution of […] LiCl in 2,2,2-trifluoroethanol at 470 mM to enhance the cis conformer peptides population. The assay was performed on the split beam spectrophotometer and the water bath was set at 5° C. Cyclophilin A (7500 pmol/mg total enzyme concentration; Sigma) were dissolved at 20 nM in a buffer (35 mM HEPES and 0.26 mg/ml chymotrypsin (specific activity 50 units/mg), pH 7.8 with KOH) and were incubated for 6 minutes at room temperature followed by 54 minutes in the water bath. […] Then 3.5 ml of the incubated cyclophilin was added to the sample cuvette. […] Peptide was added at 25 μM to initiate the reaction and the change in absorbance was monitored at 10 data points per second. As a control, rates were also determined for a parallel reaction that lacked cyclophilin. These blank rates of peptide hydrolysis (i.e. in the absence of cyclophilin) were subtracted from rates in the presence of cyclophilin A.
The initial rates obtained from the PPlase assays were analysed by first order regression analysis by using first order transformation of the traces of the time course of the change in the absorbance at 390 nm. Total enzyme concentration (Et), the inhibitor dissociation constant (Ki) and the rate constant for the rate limiting reaction was calculated with the software FigSyS (2003, Biosoft) by fitting the data obtained from the regression analysis in the tight binding inhibitor multiprotein equation.
v=k*Et*P−k*(−b−sqrt(b*b−4*c))/2
where b is defined as b=−(Et*P+I+Ki) and c is c=Et*P*I. Once Et, Ki and k were calculated by the computer for a given set of data, a graphic representation of the data was plotted and the line fitted to the points assuming tight inhibitor binding to a single protein, defined by the following equations:
v=K*Et*P−K(B−sqrt(B*B−4*C))/2
where B=Et*P+I+Ki and C=Et*P*I.

[7] = system: HCV replicon in MH-14 cells; conditions: cited from earlier work; for HCV RNA accumulation inhibited: Northern blot and quantitative RT-PCR, MH-14 cells
[8] = system: luciferase-containing HCV minireplicon in Huh 5-2 cells
Description: (§2) Assays used Huh 5-2 cells that contained a bicistronic RNA encoding a firefly luciferase-ubiquitin-neomycin phosphotransferase fusion protein and HCV proteins NS3-5. The viral sequences originated from an HCV virus of genotype 1b. Cells were cultured in RPMI 1640 medium (Gibco) supplemented with 10% fetal calf serum, 2 mM glutamine (Life Technologies), 1× non-essential amino acids (Life Technologies), 100 u/ml penicillin, 100 μg/ml streptomycin and 250 μg/ml G418 (Geneticin, Life Technologies) at 37° C. and 5% CO2. For antiviral (replication) assays, cells were seeded at a density of 7000 cells/well in 96-well View Plates™ (Packard) in the same medium except for G418. After a 24-h incubation, medium was removed, serial dilutions of test compounds in medium were added, and cells were incubated for an additional 72 h.
Antiviral effects were estimated either by luciferase assay or quantitative RT-PCR. To carry out luciferase assays, medium was removed, and cells were washed with PBS. Subsequent to lysis in 50 μl of Glo-lysis buffer (Promega) for 15 min, 50 μl of Stead-Glo Luciferase Assay Reagent (Promega) were added to cell lysates. Luciferase activity was measured using a luminometer, and the signal from each test well was expressed as a percentage of the signal measured in wells of cultures not exposed to a test compound. […]

[9] = system: HCV replicon in Huh 5-2 cells; conditions: EC50 derived from RNA titers by quantitative RT-PCR; asterisk = lower of two independently determined values
Description: as §2
The fluorogenic probe was 5′-[…]-3′.
as §1

T1 sequence (P62937 whole entry): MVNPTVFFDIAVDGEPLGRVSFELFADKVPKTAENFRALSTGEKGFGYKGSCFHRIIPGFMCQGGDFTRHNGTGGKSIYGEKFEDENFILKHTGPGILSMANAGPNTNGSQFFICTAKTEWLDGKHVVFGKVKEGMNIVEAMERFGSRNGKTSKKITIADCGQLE

| Compound | antiviral activity [1] | outcome of treated cultures in the presence of G418 (rebound phase) [2] | CC50 ([3]; Huh 5-2 cells) [µg/mL] | immunosuppressive activity (interpretation of Table 2) [4] | side effects [5] | k (rate constant for the rate limiting reaction) ([6]; cyclophilin A) [s⁻¹] | Et (total enzyme concentration) [6] [pmol/mg] | effectiveness in reducing HCV RNA titer ([7]; compared with CsA) | CC50 [3] [µg/mL] | % Stimulation (relative) ([4]; co-culture R1 × S2) [%] | % Stimulation (relative) ([4]; co-culture R2 × S1) [%] | EC50 (μg/ml) +/− Std. Dev. ([8]; luciferase assay, Huh 5-2 cells, 72 h) [µg/mL] | Selectivity index ([8]; ratio between CC50 and EC50, luciferase and MTT assays) | Ki ([6]; cyclophilin A, inhibitor 2-50 nM) [nM] | SI values [9] | HCV RNA accumulation inhibited [7] | HCV RNA titer reduction ([7]; 1 μg/ml, 7-day exposure) |
| --- | --- | --- | --- | --- | --- | --- | --- | --- | --- | --- | --- | --- | --- | --- | --- | --- | --- |
| C/C=C/C[C@@H](C)[C@@H](O)[C@H]1C(=O)N[C@@H](CC)C(=O)N(C)[C@H](C)C(=O)N(CC)[C@@H](C(C)C)C(=O)N[C@@H](C(C)C)C(=O)N(C)[C@@H](CC(C)C)C(=O)N[C@@H](C)C(=O)N[C@H](C)C(=O)N(C)[C@@H](CC(C)C)C(=O)N(C)[C@@H](CC(C)C)C(=O)N(C)[C@@H](C(C)C)C(=O)N1C [[D-MeAla]^3-[EtVal]^4-CsA] | dose-dependent antiviral activity | the cultures died | > 27 | essentially devoid of immunosuppressive activity | Mild and short-lived side effects were observed including nausea, vomiting, abdominal pain, mild headaches | 0.16 ± 0.0074 | 7500 | – | – | – | – | – | – | – | – | – | – |
| C/C=C/C[C@@H](C)[C@@H](O)[C@H]1C(=O)N[C@@H](CC)C(=O)N(C)CC(=O)N(C)[C@@H]([C@@H](C)CC)C(=O)N[C@@H](C(C)C)C(=O)N(C)[C@@H](CC(C)C)C(=O)N[C@@H](C)C(=O)N[C@H](C)C(=O)N(C)[C@@H](CC(C)C)C(=O)N(C)[C@@H](CC(C)C)C(=O)N(C)[C@@H](C(C)C)C(=O)N1C [[MeIle]^4-CsA] | – | – | – | essentially devoid of immunosuppressive activity | – | 0.17 ± 0.0068 | 7500 | about equally as effective as CsA | 14 (≈ 11.6 µM) | 84 | 75 | 0.22 (≈ 0.183 µM) | 64 | 2.11 ± 0.32 | 73 | – | – |
| C/C=C/C[C@@H](C)C(=O)[C@H]1C(=O)N[C@@H](C(C)C)C(=O)N(C)CC(=O)N(C)[C@@H](CC(C)C)C(=O)N[C@@H](C(C)C)C(=O)N(C)[C@@H](CC(C)C)C(=O)N[C@@H](C)C(=O)N[C@H](C)C(=O)N(C)[C@@H](CC(C)C)C(=O)N(C)[C@@H](CC(C)C)C(=O)N(C)[C@@H](C(C)C)C(=O)N1C [PSC 833] | – | – | – | – | – | – | – | – | – | – | – | – | – | – | – | not | – |
| Cyclosporin A [CsA] | dose-dependent antiviral activity | – | – | – | – | 0.17 ± 0.0069 | 7500 | – | – | – | – | – | – | – | – | inhibited | about 200 fold |
